In paper PMC12720774, “Detergents alter the stability and lipid binding properties of the CD1d immunoreceptor” (Protein Science : A Publication of the Protein Society, 2025):
Several values for one entry are separate records, joined by “and”; a condition that tells them apart may be missing. Equal values may be shown once. Entries after “also recorded” stand apart in the source; their conditions may differ. Read-outs that look alike come from different tables or passages of the source.

How the values were obtained:
[1] = target: T1, recombinant human CD1d ectodomain/β2m complex (hCD1d) (Homo sapiens, UniProt P15813+P61769); assay: Intrinsic tryptophan fluorescence (ITF) binding assay
T1 construct: TEV protease cleavage site ENLYFQS (C); BirA biotinylation site (C); His7 (C); made in house; host or cells: TurboCHO cells (GenScript)
Protocol: (§1) For ITF assays, the concentration of hCD1d was kept constant, and intrinsic Trp fluorescence (excitation at 285 nm, emission at 335 nm) was measured as a function of increasing detergent concentration (Fossum et al., [2023]) (Figure S2). The change in relative fluorescence intensity (F − F 0/F 0) provides an indication of binding. […] This was due to limited detergent solubility and decreased hCD1d stability in the presence of a large excess of detergent (see below). […] SDS was the exception, for which Trp fluorescence of hCD1d decreased with added detergent. This could indicate a unique conformational change or destabilization of the protein.
(§2) ITF spectra were recorded from 300 to 500 nm using a Horiba FL3‐21 Fluorometer with the excitation wavelength of 285 nm and excitation/emission slits of 6.2 nm. Fluorescence spectra of 50 to 100 nM hCD1d were acquired in the absence and presence of detergents in 1X PBS pH 7.4 at 25°C. Prior to data acquisition, hCD1d and detergent or lipid samples were incubated at 37°C overnight (~12 h) to simulate in vitro and in vivo loading conditions. […] For 18:1 LPC experiments, fluorescence spectra of 100 nM hCD1d were acquired in the absence and presence of 18:1 LPC in 1X PBS pH 7.4 at 25°C. […] For all ITF experiments, the change in fluorescence signal (F − F 0/F 0) was determined at 335 nm. Three replicates were performed, and data are presented as the mean ± standard deviation (n = 3). K D values were fitted with non‐linear regression in GraphPad Prism v10.1.

[2] = approximate, ref Anatrace catalogue, cited from earlier work
hCD1d = hCD1d (Homo sapiens, UniProt P15813+P61769); assay: Nano differential scanning fluorimetry (nanoDSF) thermal stability; assay type: binding; parameters: TEV protease cleavage site ENLYFQS (C); BirA biotinylation site (C); His7 (C); made in house; host or cells: TurboCHO cells (GenScript); conditions: for ΔTm aveage: Figure 5C, nanoDSF, hCD1d with detergent; for ΔT m (NanoDSF): T m difference between hCD1d in the absence and presence of 1000 μM detergent, 1 μM hCD1d; for ΔT m, detergent class summary: approximate; for detergent concentration at which hCD1d appeared to unfold: disappearance of inflection point in ∂(F350/F330)/∂T
Description: We next sought to probe the ability of each detergent to influence the thermal stability of hCD1d. NanoDSF has been previously applied to measure lipid/detergent‐induced thermal stability changes in target proteins (Cecchetti et al., [2021]; Kotov et al., [2019]), but has not yet been applied to ligand binding to CD1. NanoDSF measures the ITF ratio (F 350 nm/F 330 nm) of proteins as a function of temperature to extract thermodynamic parameters. Given that ligand binding typically shifts the melting temperature of proteins, the effect of a ligand on protein stability can be approximated with the ΔT m value (the difference in T m with and without excess ligand) (Cecchetti et al., [2021]; Kotov et al., [2019]). We found all detergents tested to destabilize hCD1d, albeit to different degrees, with ΔT m values ranging from −0.8 to −14.2°C (Figures 4, S4, and Table 1).
Nano differential scanning fluorometry (nanoDSF) was performed using a Prometheus NT.48 (NanoTemper Technologies). Purified hCD1d at 1 μM in 1X PBS pH 7.4 was loaded into nanoDSF grade standard capillaries (NanoTemper Technologies) and exposed to temperatures ranging from 20 to 95°C with a thermal ramping rate of 1°C/min. Excitation power was set to 50%. The ratio of intrinsic fluorescence emission (F 350 nm/F 330 nm) was monitored. Melting temperatures (T m) were obtained from fitting the first derivative plots in the Prometheus NT.48 Software. The experiments were performed in triplicate, and data are presented as the mean ± standard deviation (n = 3).
For experiments with most detergents, prior to data acquisition, hCD1d and detergent or lipid samples were incubated at 37°C overnight (~12 h) to simulate in vitro and in vivo loading conditions. […] For 18:1 LPC experiments: nanoDSF spectra were acquired in the absence and presence of 18:1 LPC in 1X PBS pH 7.4 at 25°C.

[3] = target: T2, recombinant human CD1d ectodomain/β2m complex (hCD1d) (Homo sapiens, UniProt P15813); assay: Intrinsic tryptophan fluorescence (ITF) binding assay; conditions: detergent with 100 nM hCD1d, 25°C, 1X PBS pH 7.4; apparent; read-out: K D (ITF)
T2 construct: TEV protease cleavage site ENLYFQS (C); BirA biotinylation site (C); His7 (C); made in house; host or cells: TurboCHO cells (GenScript)
Protocol: as §1, §2

Sequence of hCD1d (P61769+P15813 fused): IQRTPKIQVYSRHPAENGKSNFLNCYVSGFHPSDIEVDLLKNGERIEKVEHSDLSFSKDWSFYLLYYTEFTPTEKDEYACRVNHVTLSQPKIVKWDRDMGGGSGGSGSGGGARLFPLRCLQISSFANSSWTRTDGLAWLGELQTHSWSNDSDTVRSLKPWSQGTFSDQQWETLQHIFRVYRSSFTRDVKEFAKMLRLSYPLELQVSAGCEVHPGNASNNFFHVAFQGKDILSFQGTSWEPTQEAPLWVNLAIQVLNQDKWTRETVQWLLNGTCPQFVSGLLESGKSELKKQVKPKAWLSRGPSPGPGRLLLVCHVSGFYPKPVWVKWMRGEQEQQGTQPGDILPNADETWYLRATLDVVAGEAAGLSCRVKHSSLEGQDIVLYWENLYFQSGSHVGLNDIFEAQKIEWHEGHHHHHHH
T1 sequence (P61769+P15813 fused): as above
T2 sequence (P15813 whole entry, looked up, the tested form may be a part, one chain of several): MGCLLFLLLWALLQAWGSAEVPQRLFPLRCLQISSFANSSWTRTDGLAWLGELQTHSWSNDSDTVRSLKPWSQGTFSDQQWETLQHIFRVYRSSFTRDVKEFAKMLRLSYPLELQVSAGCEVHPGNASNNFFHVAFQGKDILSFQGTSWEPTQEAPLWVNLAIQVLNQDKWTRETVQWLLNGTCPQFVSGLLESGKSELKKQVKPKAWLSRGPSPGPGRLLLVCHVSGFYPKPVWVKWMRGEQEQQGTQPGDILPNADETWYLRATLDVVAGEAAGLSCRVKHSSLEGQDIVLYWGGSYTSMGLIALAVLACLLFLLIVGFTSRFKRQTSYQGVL

Compound	CMC [2]	CMC ([2]; weight/volume)	ΔTm aveage (hCD1d)	ΔT m (NanoDSF) (hCD1d)	ΔT m, detergent class summary (hCD1d)	Kd [3]	binding to hCD1d by ITF (in words) [1]	detergent concentration at which hCD1d appeared to unfold (hCD1d)	further results
Tween 80	12 µM	0.0016%	-9.7 °C	-9.7 ± 0.4 °C	−8 to −10 °C				F-F0/F0 (rep 1-3) ([1]; 6.1035e-9 M detergent): 0; F-F0/F0 (rep 1-3) ([1]; 7.8125e-7 M detergent): 0.1677 and 0.1078 and 0.1575; F-F0/F0 (rep 1-3) ([1]; 1.5625e-6 M detergent): 0.2804 and 0.1624 and 0.168; F-F0/F0 (rep 1-3) ([1]; 3.125e-6 M detergent): 0.6451 and 0.4306 and 0.4698; F-F0/F0 (rep 1-3) ([1]; 6.25e-6 M detergent): 0.9699 and 0.8276 and 0.7611; F-F0/F0 (rep 1-3) ([1]; 1.25e-5 M detergent): 0.863 and 0.6745 and 0.8384; F-F0/F0 (rep 1-3) ([1]; 2.5e-5 M detergent): 1.041 and 0.837 and 0.8177; F-F0/F0 (rep 1-3) ([1]; 5e-5 M detergent): 1.186 and 0.8687 and 0.9274; F-F0/F0 (rep 1-3) ([1]; 0.0001 M detergent): 1.309 and 1.057 and 0.8857; F-F0/F0 (rep 1-3) ([1]; 0.0002 M detergent): 1.646 and 1.2423 and 1.107; Kd ([1]; Figure 5A, detergent binding to hCD1d, read-out: ITF - Kd (uM) average): 4.59 µM; Kd ([1]; detergent with 100 nM hCD1d, 25°C, 1X PBS pH 7.4, apparent, read-out: K D (ITF)): 4.6 ± 0.9 µM
CCCCCCCCO[C@@H]1O[C@H](CO)[C@@H](O)[C@H](O)[C@H]1O [ODG, n‐octyl‐β‐D‐glucopyranoside]	18,000 μM	0.53%	-0.83 °C	−0.8 ± 0.4 °C	−1 to −2 °C	> 10000 µM	No significant binding; also recorded: minimal concentration‐dependent fluorescence changes		F-F0/F0 (rep 1-3) ([1]; Concentration (M) 0.000977): 0; ΔT m (nanoDSF), lipid/hCD1d (hCD1d; absence vs maximum concentration of detergent, 1 μM endo/hCD1d (Figure S10)): −0.2 to −0.8 °C
CCCCCCCCCCCC[N+](C)(C)[O-] [LDAO, lauryldimethylamine‐N‐oxide]	1000 µM	0.023%	-13.43 °C	−13.4 ± 0.1 °C	−12 to −15 °C	> 10000 µM	observable binding	> 200 µM	F-F0/F0 (rep 1-3) ([1]; 3.0518e-8 M detergent): 0; F-F0/F0 (rep 1-3) ([1]; 1.2207e-7 M detergent): 0.07548 and 0.05543 and 0.06384; F-F0/F0 (rep 1-3) ([1]; 4.8828e-7 M detergent): 0.06847 and 0.06205 and 0.06021; F-F0/F0 (rep 1-3) ([1]; 0.00025 M detergent): 0.1026 and 0.1076 and 0.1826; F-F0/F0 (rep 1-3) ([1]; 0.001 M detergent, 100 nM hCD1d): 0.4171 and 0.3604 and 0.4782
C[C@H](CCC(=O)O)[C@H]1CC[C@H]2[C@@H]3CC[C@@H]4C[C@H](O)CC[C@]4(C)[C@H]3C[C@H](O)[C@]12C [Deoxycholate, sodium deoxycholate]			-10 °C	−10.0 ± 0.3 °C		> 10000 µM	No significant binding	> 200 µM	ΔT m (NanoDSF) (hCD1d; listed as Sodium deoxycholate): −10.0 ± 0.3 °C
